Source: patent US8124069B2, “Immunogenic peptides” (Rush University Medical Center, priority 2002, dated 2012)
Where “and” joins values, the source holds several entries; their conditions need not be identical. Identical values can stand only once.

Legend:
HLA-A2.1 = HLA-A2.1 (Homo sapiens, UniProt P04439, D140Y/D185E/D98H/E176V/E277Q/G131W/G231S/I119V/I121R/I166T/I218V/L300P/L318F/N151K/N90K/P208A/P217A/Q86G/Q94H/R138H/R169H/T345S); test: Peptide binding to HLA-A2.1+ T2 cells under Brefeldin A treatment (peptide/HLA-A2.1 complex stability)
[1] = test system: HLA-A2.1 positive ML-2 cells; test: Cytotoxicity of peptide-specific CTLs against ML-2 cells (51Cr release); type: cell-based, human; settings: for Cytotoxicity of peptide-specific CTLs against ML-2 cells (%): target:effector 1:60
Source text: The present example illustrates that that the present peptides are capable of inducing a T-lymphocyte response. In this example, antigen presenting cells were pulsed at 150 micrograms of each peptide per 1 million antigen presenting cells with the following amino acid sequences: […]

dendritic cells = test: Phenotypic analysis of dendritic cells matured with maturation factors; type: cell-based, human; settings: DCs matured during last three days of culture
Description: Immature DCs were generated according to modified protocols of Romani et al. (1994) and Bakker et al. (1995). Briefly, fresh or frozen/thawed CD14+ cells were cultured in RPMI 1640 medium (Gibco-Life Technologies) supplemented with 10% FCS, 1,000 U/ml GM-CSF and 1,000 U/ml IL-4. The cell cultures were fed with fresh medium and GM-CSF and IL-4 every other day and cell differentiation was monitored by light microscopy. On day 7, the cultures were supplemented with different combinations of DC maturation factors such as lipopolysaccharide (100 U/ml), TNF-α (10 ng/ml), or IFN-α (1,000 U/ml) plus TNF-α (10 ng/ml). After three days of incubation, mature DCs (mDC) were harvested and evaluated for their phenotypes by flow cytometry. The maturation factor(s) yielding optimal DC maturation was determined and used to generate mDCs for peptide pulsing in upcoming studies. In this example, immature DCs obtained by the culture of CD 14+ monocytes with GM-CSF (1,000 U/ml) and IL-4 (1,000 U/ml) were induced to undergo maturation by incubation with LPS (100 Units/ml), TNF-α10 ng/ml) or TNF-α (10 ng/ml)+IFN-α50 ng/ml) during the final three days of the culture period. […] The highest up-regulation of the co-stimulatory (CD80 and CD86) and HLA-A2.1 MHC class I molecules was detected on DCs treated with TNF-α+IFN-α (Table 5).

[2] = test system: effector cells (T lymphocytes); settings: APC: T2; 2 stims

Q: How did the “binding to HLA-A2.1 on T2 cells, in words” value (HLA-A2.1) turn out when “YIISGISPV (listed as Homo sapiens) [SEQ ID NO: 6, modified CD33 peptide]” was run?
A: good and prolonged stable binding

Q: Which results are given for “ALISGDSPV (listed as Homo sapiens) [SEQ ID NO: 16, modified CD33 peptide]”?
A: binding to HLA-A2.1 on T2 cells, in words (HLA-A2.1): good and prolonged stable binding; immunogenicity in similar experiments [1]: immunogenic

Q: Which results are given for TNF-α?
A: CD80 expression, mean channel fluorescence (MCF) (dendritic cells): 107; CD86 expression, mean channel fluorescence (MCF) (dendritic cells): 96; HLA-A2.1 expression, mean channel fluorescence (MCF) (dendritic cells): 475

Q: Which results are given for “YLALCLCLI (listed as Homo sapiens) [SEQ ID NO: 1]”?
A: Cytotoxicity of peptide-specific CTLs against ML-2 cells (%) ([1]; APC: T2, 2 stimulations, donors F, G): 21% and 34%; Cytotoxicity of peptide-specific CTLs against ML-2 cells (%) ([1]; APC: T2, 3 stimulations, donors F, G): 36% and 64%; Expression level of CD4 (T helper), mean fluorescence intensity [2]: 81 and 57; Expression level of CD45RO (Memory), mean fluorescence intensity [2]: 1262 and 1432; Expression level of CD95 (Activation), mean fluorescence intensity [2]: 99 and 102

Q: Which “Cytotoxicity of peptide-specific CTLs against ML-2 cells (%)” value ([1]; APC: DC, 2 stimulations, different donors) does the source give for “YIISGDSPV (listed as Homo sapiens) [SEQ ID NO: 3, modified CD33 peptide]” here?
A: 37%

Q: How did the “binding to HLA-A2.1 on T2 cells, in words” value (HLA-A2.1) turn out when “YLISGDSPV (listed as Homo sapiens) [SEQ ID NO: 7, modified CD33 peptide]” was run?
A: good and prolonged stable binding
